Measurements reported in the NIST ThermoML archive (doi:10.1021/je500977g).

Experiment: mn = molality of the nth substance listed, in mol/kg
Conditions: Liquid

C[N+](C)(C)[O-] [trimethylamine oxide] + O
mass density [kg/m3]
Conditions | 278.15 K | 288.15 K | 298.15 K | 308.15 K | 323.15 K
101 kPa, Vibrating tube method, m1 = 0.0875 | 1000.16 | 999.28 | 997.22 | 994.21 | 988.2
101 kPa, Vibrating tube method, m1 = 0.1707 | 1000.36 | 999.46 | 997.4 | 994.38 | 988.37
101 kPa, Vibrating tube method, m1 = 0.2465 | 1000.55 | 999.63 | 997.57 | 994.54 | 988.53
101 kPa, Vibrating tube method, m1 = 0.3259 | 1000.75 | 999.82 | 997.74 | 994.71 | 988.7
101 kPa, Vibrating tube method, m1 = 0.4018 | 1000.95 | 1000 | 997.91 | 994.88 | 988.86
101 kPa, Vibrating tube method, m1 = 0.5862 | 1001.48 | 1000.47 | 998.35 | 995.31 | 989.27
101 kPa, Vibrating tube method, m1 = 0.7963 | 1002.11 | 1001.02 | 998.86 | 995.8 | 989.75
101 kPa, Vibrating tube method, m1 = 1.039 | 1002.89 | 1001.71 | 999.49 | 996.41 | 990.34
101 kPa, Vibrating tube method, m1 = 1.373 | 1004.01 | 1002.7 | 1000.4 | 997.27 | 991.15
101 kPa, Vibrating tube method, m1 = 1.923 | 1006.05 | 1004.48 | 1002.01 | 998.77 | 992.62
101 kPa, Vibrating tube method, m1 = 3.259 | 1011.69 | 1009.4 | 1006.44 | 1002.83 | 996.37
101 kPa, Vibrating tube method, m1 = 4.325 | 1016.41 | 1013.58 | 1010.2 | 1006.27 | 999.45
10000 kPa, Constant-volume piezometry, m1 = 0.1707 | 1005.1 | 1003.98 | 1001.77 | 998.64 | 992.59
10000 kPa, Constant-volume piezometry, m1 = 0.3259 | 1005.43 | 1004.27 | 1002.05 | 998.93 | 992.87
10000 kPa, Constant-volume piezometry, m1 = 0.5862 | 1006.05 | 1004.81 | 1002.57 | 999.44 | 993.35
10000 kPa, Constant-volume piezometry, m1 = 1.039 | 1007.25 | 1005.85 | 1003.56 | 1000.4 | 994.29
10000 kPa, Constant-volume piezometry, m1 = 1.373 | 1008.19 | 1006.74 | 1004.38 | 1001.17 | 995.02
10000 kPa, Constant-volume piezometry, m1 = 1.923 | 1009.95 | 1008.34 | 1005.83 | 1002.54 | 996.38
10000 kPa, Constant-volume piezometry, m1 = 3.259 | 1015.17 | 1012.89 | 1009.93 | 1006.31 | 999.89
10000 kPa, Constant-volume piezometry, m1 = 4.325 | 1019.59 | 1016.87 | 1013.44 | 1009.52 | 1002.81
25000 kPa, Constant-volume piezometry, m1 = 0.1707 | 1012.1 | 1010.63 | 1008.19 | 1004.94 | 998.81
25000 kPa, Constant-volume piezometry, m1 = 0.3259 | 1012.31 | 1010.83 | 1008.39 | 1005.15 | 999.01
25000 kPa, Constant-volume piezometry, m1 = 0.5862 | 1012.75 | 1011.2 | 1008.79 | 1005.53 | 999.37
25000 kPa, Constant-volume piezometry, m1 = 1.039 | 1013.68 | 1012.01 | 1009.58 | 1006.27 | 1000.14
25000 kPa, Constant-volume piezometry, m1 = 1.373 | 1014.44 | 1012.71 | 1010.25 | 1006.92 | 1000.75
25000 kPa, Constant-volume piezometry, m1 = 1.923 | 1015.88 | 1014.05 | 1011.48 | 1008.08 | 1001.93
25000 kPa, Constant-volume piezometry, m1 = 3.259 | 1020.33 | 1018.05 | 1015.13 | 1011.45 | 1005.1
25000 kPa, Constant-volume piezometry, m1 = 4.325 | 1024.4 | 1021.69 | 1018.32 | 1014.35 | 1007.83
50000 kPa, Constant-volume piezometry, m1 = 0.1707 | 1023.24 | 1021.25 | 1018.48 | 1015.02 | 1008.75
50000 kPa, Constant-volume piezometry, m1 = 0.3259 | 1023.31 | 1021.31 | 1018.55 | 1015.1 | 1008.83
50000 kPa, Constant-volume piezometry, m1 = 0.5862 | 1023.5 | 1021.47 | 1018.73 | 1015.28 | 1009.01
50000 kPa, Constant-volume piezometry, m1 = 1.039 | 1023.97 | 1021.88 | 1019.17 | 1015.72 | 1009.49
50000 kPa, Constant-volume piezometry, m1 = 1.373 | 1024.42 | 1022.31 | 1019.6 | 1016.14 | 1009.9
50000 kPa, Constant-volume piezometry, m1 = 1.923 | 1025.37 | 1023.22 | 1020.48 | 1016.98 | 1010.79
50000 kPa, Constant-volume piezometry, m1 = 3.259 | 1028.7 | 1026.33 | 1023.44 | 1019.69 | 1013.38
50000 kPa, Constant-volume piezometry, m1 = 4.325 | 1032.12 | 1029.39 | 1026.18 | 1022.07 | 1015.77
75000 kPa, Constant-volume piezometry, m1 = 0.1707 | 1033.79 | 1031.35 | 1028.27 | 1024.62 | 1018.2
75000 kPa, Constant-volume piezometry, m1 = 0.3259 | 1033.7 | 1031.27 | 1028.22 | 1024.58 | 1018.18
75000 kPa, Constant-volume piezometry, m1 = 0.5862 | 1033.63 | 1031.21 | 1028.19 | 1024.56 | 1018.19
75000 kPa, Constant-volume piezometry, m1 = 1.039 | 1033.68 | 1031.28 | 1028.3 | 1024.68 | 1018.41
75000 kPa, Constant-volume piezometry, m1 = 1.373 | 1033.85 | 1031.46 | 1028.51 | 1024.9 | 1018.64
75000 kPa, Constant-volume piezometry, m1 = 1.923 | 1034.37 | 1031.97 | 1029.06 | 1025.43 | 1019.23
75000 kPa, Constant-volume piezometry, m1 = 3.259 | 1036.77 | 1034.24 | 1031.32 | 1027.51 | 1021.32
75000 kPa, Constant-volume piezometry, m1 = 4.325 | 1039.49 | 1036.73 | 1033.57 | 1029.5 | 1023.38
100000 kPa, Constant-volume piezometry, m1 = 0.1707 | 1043.78 | 1040.95 | 1037.61 | 1033.77 | 1027.22
100000 kPa, Constant-volume piezometry, m1 = 0.3259 | 1043.57 | 1040.74 | 1037.41 | 1033.59 | 1027.09
100000 kPa, Constant-volume piezometry, m1 = 0.5862 | 1043.26 | 1040.48 | 1037.18 | 1033.39 | 1026.94
100000 kPa, Constant-volume piezometry, m1 = 1.039 | 1042.96 | 1040.22 | 1036.99 | 1033.25 | 1026.92
100000 kPa, Constant-volume piezometry, m1 = 1.373 | 1042.87 | 1040.16 | 1036.98 | 1033.26 | 1027
100000 kPa, Constant-volume piezometry, m1 = 1.923 | 1043.01 | 1040.3 | 1037.22 | 1033.48 | 1027.3
100000 kPa, Constant-volume piezometry, m1 = 3.259 | 1044.64 | 1041.8 | 1038.74 | 1034.99 | 1028.88
100000 kPa, Constant-volume piezometry, m1 = 4.325 | 1046.85 | 1043.78 | 1040.54 | 1036.64 | 1030.78
